Measurements from PMC9822041 (Molecules, 2022).
Where “and” joins values, the source holds several entries; their conditions need not be identical. Equal entries are not always repeated. Where two headings read alike, the source gives them in different places.

How the values were obtained:
hCLK1 = hCLK1 (Homo sapiens, UniProt P49759); assay: CLK1 Human CMGC Kinase Enzymatic Radiometric Assay [Km ATP]; format: biochemical
hDYRK1A = hDYRK1A (Homo sapiens, UniProt Q13627); assay: DYRK1A Human CMGC Kinase Enzymatic Radiometric Assay [Km ATP]; format: biochemical
[1] = In vitro DPPH radical scavenging assay; conditions: methanol, 37 °C, 40 min, absorbance at 517 nm
Experimental: Finally, the aptitude of 1p to act as a free radical scavenger was assessed using the rapid, inexpensive and widely used DPPH^• (2,2-diphenyl-1-picrylhydrazyl) scavenging method. Dark purple DPPH^• is a stable free radical that can accept an electron or hydrogen to become a stable diamagnetic molecule with the loss of violet color. […] Thus, this novel class of hDYRK1A/hCLK1 inhibitors are all the more interesting that they may also potentially display an additional antioxidant activity to combat oxidative stress in AD.
Figure 1. In vitro stability of 1p in various non-oxidazing and oxidazing media.
III – In vitro DPPH radical scavenging assay
DPPH radical scavenging activity was determined according to the method described by Blois.5 0.5 mL of 0.1 mM DPPH radical solution in methanol was mixed with 1.5 mL of various concentrations in methanol of 1p. The mixture was then thoroughly vortexed for 5s and each antioxidant-DPPH radical reaction mixture is kept in the test tubes in the dark at 37 °C for 40 min (time point by which all reactions should have reached steady state) and transferred to a cuvette for absorbance measurement at 517 nm. For the baseline control, 1.5 mL of methanol was used. […] Percentage of inhibition was calculated using the equation [(A0−A1)/A0] × 100 where A0 was the absorbance of the control and A1 was the absorbance in the presence of the compound. […]

in vitro = conditions: PAMPA, pH 7.4
[2] = Solubility of 1p in PBS (HPLC); format: physicochemical; conditions: aqueous buffer, kinetic from dmso stock; PBS pH 7.4, 24 h at 20 °C; read-out: Experimental solubility in PBS
[3] = In vitro stability/oxidation of 1p to 2p in PBS, NAD+, H2O2 and riboflavin solutions (HPLC-UV); format: physicochemical; conditions: 25 μM 1p
CLK1 = tested on: CLK1; design: method as in PMID 20981014, PMID 15010457; conditions: cited from earlier work
DYRK1A = conditions: cited from earlier work
[4] = radiometric assay, Km ATP, read-out: IC50 hCLK1
[5] = radiometric assay, Km ATP, read-out: IC50 hDYRK1A
[6] = compared with N-methyl dihydroquinoline 1h
[7] = quinolinium salt and quinoline intermediates, read-out: IC50 hCLK1 (synthetic intermediates)
[8] = quinolinium salt and quinoline intermediates, read-out: IC50 hDYRK1A (synthetic intermediates)

hCLK1, sequence (P49759 whole entry): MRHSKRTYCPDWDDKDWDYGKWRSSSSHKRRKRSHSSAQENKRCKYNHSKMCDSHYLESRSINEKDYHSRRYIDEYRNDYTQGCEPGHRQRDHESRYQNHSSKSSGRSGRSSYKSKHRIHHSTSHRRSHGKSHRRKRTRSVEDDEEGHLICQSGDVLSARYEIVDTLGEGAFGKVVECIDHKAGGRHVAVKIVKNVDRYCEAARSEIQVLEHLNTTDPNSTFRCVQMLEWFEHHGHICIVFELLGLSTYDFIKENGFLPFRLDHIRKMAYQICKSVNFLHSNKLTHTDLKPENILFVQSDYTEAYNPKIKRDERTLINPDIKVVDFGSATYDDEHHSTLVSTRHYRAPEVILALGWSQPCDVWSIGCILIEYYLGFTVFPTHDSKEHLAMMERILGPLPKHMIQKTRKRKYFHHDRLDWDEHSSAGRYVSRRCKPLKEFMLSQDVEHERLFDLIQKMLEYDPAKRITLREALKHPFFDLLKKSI

SMILES	melting point	IC50 (hCLK1; [4])	IC50 (hDYRK1A; [5])	also measured
CCC[n+]1cc(C(C)=O)cc2ccc(OC)cc21.[Br-]	183 to 184 °C			
CC(=O)C1=CN(C)c2ccccc2C1 [Compound 1a, 1-(1-Methyl-1,4-dihydroquinolin-3-yl)ethanone]		> 10 µM	> 10 µM	
CC(=O)C1=CN(C)c2cc(C(F)(F)F)ccc2C1 [Compound 1b, 1-(1-Methyl-7-(trifluoromethyl)-1,4-dihydroquinolin-3-yl)ethanone]	141 to 142 °C	> 10 µM	> 10 µM	
CC(=O)C1=CN(C)c2cc(N(C)C)ccc2C1 [Compound 1c, 1-(7-(Dimethylamino)-1-methyl-1,4-dihydroquinolin-3-yl)ethanone]	126 to 127 °C	> 10 µM	> 10 µM	
CC(=O)C1=CN(C)c2cc(Br)ccc2C1 [Compound 1d, 1-(7-Bromo-1-methyl-1,4-dihydroquinolin-3-yl)ethanone]	179 to 180 °C	> 10 µM	> 10 µM	
CC(=O)C1=CN(C)c2ccc(Cl)cc2C1 [Compound 1e, 1-(6-Chloro-1-methyl-1,4-dihydroquinolin-3-yl)ethanone]	124 to 125 °C	> 10 µM	> 10 µM	
COc1cc2c(cc1OC)N(C)C=C(C(C)=O)C2 [Compound 1f, 1-(6,7-Dimethoxy-1-methyl-1,4-dihydroquinolin-3-yl)ethanone]	235 to 236 °C	> 10 µM	> 10 µM	
CC(=O)C1=CN(C)c2cc3c(cc2C1)OCO3 [Compound 1g, 1-(5-Methyl-5,8-dihydro-[1,3]dioxolo[4,5-g]quinolin-7-yl)ethanone]	152 to 153 °C	> 10 µM	> 10 µM	
COc1ccc2c(c1)N(C)C=C(C(C)=O)C2 [Compound 1h, 1-(7-Methoxy-1-methyl-1,4-dihydroquinolin-3-yl)ethanone]	99 to 100 °C	0.377 ± 0.158 µM	0.385 ± 0.13 µM	
COc1ccc2c(c1)N(C)C=C(C#N)C2 [Compound 1i, 7-Methoxy-1-methyl-1,4-dihydroquinoline-3-carbonitrile]	127 to 128 °C	> 10 µM	> 10 µM	
COC(=O)C1=CN(C)c2cc(OC)ccc2C1 [Compound 1j, Methyl 7-methoxy-1-methyl-1,4-dihydroquinoline-3-carboxylate]	95 to 96 °C	1.46 ± 0.253 µM	> 10 µM	
CCOC(=O)C1=CN(C)c2cc(OC)ccc2C1 [Compound 1k, Ethyl 7-methoxy-1-methyl-1,4-dihydroquinoline-3-carboxylate]	93 to 94 °C	3.16 ± 0.525 µM	> 10 µM	
COc1ccc2c(c1)N(C)C=C(C(=O)N(C)C)C2 [Compound 1l, 7-Methoxy-N,N,1-trimethyl-1,4-dihydroquinoline-3-carboxamide]	219 to 220 °C	> 10 µM	> 10 µM	
COc1ccc2c(c1)N(C)C=C(C(=O)N(C)OC)C2 [Compound 1m, N,7-Dimethoxy-N,1-dimethyl-1,4-dihydroquinoline-3-carboxamide]		> 10 µM	> 10 µM	
COc1ccc2c(c1)N(Cc1ccccc1)C=C(C(C)=O)C2 [Compound 1n, 1-(1-Benzyl-7-methoxy-1,4-dihydroquinolin-3-yl)ethanone]	129 to 130 °C	0.595 ± 0.063 µM	3.02 ± 0.15 µM	
COc1ccc2c(c1)N(CCc1ccccc1)C=C(C(C)=O)C2 [Compound 1o, 1-(7-Methoxy-1-phenethyl-1,4-dihydroquinolin-3-yl)ethanone]	92 to 93 °C	0.122 ± 0.012 µM	1.11 ± 0.203 µM	
CCCN1C=C(C(C)=O)Cc2ccc(OC)cc21 [Compound 1p, 1-(7-Methoxy-1-propyl-1,4-dihydroquinolin-3-yl)ethanone]	98 to 99 °C	0.047 ± 0.013 µM	0.153 ± 0.044 µM	fold more potent than 1h toward hCLK1 (hCLK1; [6]): 8 fold; EC50 [1]: 128 µM; Papp at 4 h, 100 µM (in vitro): 20 ± 0.9 ×10⁻⁶ cm/s; fold more potent than 1h toward hDYRK1A (hDYRK1A; [6]): 2.5 fold; solubility at 24 h [2]: 600 µM and 147 µg/mL; % formed 2p after incubation at 37 °C ([3]; 0.1% H2O2 in PBS, after 3.5 h): 13%; % formed 2p after incubation at 37 °C ([3]; 0.1% H2O2 in PBS, after 24 h): 53%; % formed 2p after incubation at 37 °C ([3]; 0.1% riboflavin in PBS, after 3.5 h (in less than 3.5 h)): 100%; % formed 2p after incubation at 37 °C ([3]; 0.2% NAD+ in PBS, after 3.5 h): 5%; % formed 2p after incubation at 37 °C ([3]; 0.2% NAD+ in PBS, after 24 h): 16%; % formed 2p after incubation at 37 °C ([3]; 2% NAD+ in PBS, after 3.5 h): 24%; % formed 2p after incubation at 37 °C ([3]; 2% NAD+ in PBS, after 24 h): 77%; % formed 2p after incubation at 37 °C ([3]; PBS pH 7.4, after 3.5 h): 3%; % formed 2p after incubation at 37 °C ([3]; PBS pH 7.4, after 24 h): 8%
COc1ccc2cc(C(C)=O)c[n+](C)c2c1.[I-] [Compound 2h, 3-Acetyl-7-methoxy-1-methylquinolin-1-ium iodide]	223 to 224 °C			IC50 (hCLK1; [7]): > 10 µM; IC50 (hDYRK1A; [8]): > 10 µM
COc1ccc2cc(C(C)=O)cnc2c1 [Compound 6h, 3-Acetyl-7-methoxyquinoline]	129 to 130 °C			IC50 (hCLK1; [7]): > 10 µM; IC50 (hDYRK1A; [8]): > 10 µM
CCN1/C(=C/C(C)=O)Sc2ccc(O)cc21 [INDY, (Z)-1-(3-Ethyl-5-hydroxy-2(3H)-benzothiazolylidene)-2-propanone]				CLK1 % inhibition (CLK1; at 10 μM): 99%
CCN1/C(=C/C(C)=O)Sc2ccc(OC(C)=O)cc21 [ProINDY]				DYRK1A % inhibition (DYRK1A; at 10 μM): 26.1%
